Test results published in patent publication US20100292316A1, “IMPROVED THERAPEUTIC METHODS AND COMPOSITIONS COMPRISING CHROMAN RING COMPOUNDS” (Research Development Foundation, priority 2007, published 2010).

Tests used:
Format in all cases: cell-based, human
Akt = assay: Western blot of phosphorylated Akt (Ser 473) and total Akt in prostate cancer cells
Description: (§1) Previous studies have shown that α-TEA is an effective inducer of apoptosis in human prostate cancer cells (Anderson et al., 2004). Dose- and time-dependent pro-apoptotic effects of α-TEA in prostate cancer cells are mediated by Fas/FADD/caspase-8/tBid and Fas/Daxx/Ask1/JNK1/2/Bax, leading to activation of caspases-9 and -3. Thus, the Akt inhibiting activity of α-TEA was investigated in prostate cancer cells. Since phosphorylation of Akt at Ser 473 is required for its full activation (Cheng et al., 2005), we examined the phosphorylation status of Akt using an antibody that specifically recognizes Akt phosphorylated at Ser 473 in all three Akt isoforms (Upstate Cell Signaling Solutions (Charlottesville, Va.)). α-TEA decreased the levels of the phosphorylated forms of Akt. […] As verification that the decreases in phosphorylation status of Akt correlated with decreased kinase activity, the phosphorylation status of GSK3β, a downstream Akt target, was evaluated following α-TEA treatments. […] GAPDH levels were assayed with each immunoblot assay as a protein loading control.
Since Akt has three isoforms; namely, Akt1, Akt2, and Akt3, it was of interest to determine if α-TEA treatment was reducing the phosphorylated status of all three isoforms. Following α-TEA treatment the three Akt isoforms were immunoprecipitated with isoform specific antibodies, followed by western immunoblotting analyses using antibody specific for phospho-Akt. The protein levels of the isoforms were also determined. […] Treatment diminished the phosphorylation levels in all three Akt isoforms in both LNCaP and PC-3-GFP cells.
1×10^7 LNCaP or PC-3 3-GFP cells were treated with α-TEA and lysed in RIPA lysis buffer in the presence of protease inhibitors. […] Beads were washed 4 times with PBS and the proteins were released from the beads by boiling in Laemmli buffer for 5 min. Immunoprecipitated proteins were identified by SDS-PAGE followed by western immunoblot analyses.
Since Akt is activated, at least in part, by PI3K, we were interested to see if blockage of PI3K activity using the PI3K inhibitor LY294002 (Calbiochem-Novabiochem Corp. (San Diego, Calif.)) (Vlahos et al., 1994) would augment the apoptotic response induced by α-TEA.

GSK3β = assay: Western blot of phospho-GSK3β (Ser 9); settings: LNCaP and PC-3-GFP cells, 40 μM α-TEA
Description: as §1
Akt antibodies for the foregoing studies (Akt, Akt1, Akt2, Akt and phospho-Akt) as well as GSK3β and phospho-GSK3β antibodies were purchased from Cell Signaling Technology (Beverly, Mass.).

NOXA = NOXA mRNA (RT-PCR) and protein (Western blot) levels; settings: for peak NOXA mRNA levels, fold higher than VEH control / NOXA protein levels, fold higher than VEH control: 40 μM α-TEA; for NOXA protein levels, fold higher than VEH control: 24 h
Protocol: Whole-cell protein extracts were prepared as described previously (Yu et al., 1999), and 50 μg of protein was loaded per lane, separated using SDS-PAGE on a 10-15% gel under reducing conditions, and electroblotted onto a nitrocellulose membrane ([…] Optitran BA-S-supported nitrocellulose; Schleicher and Schuell, Keene, N.H.). Equal loading was verified using GAPDH antibody. Primary rabbit antibodies with specificity for PARP and primary goat antibody with specificity for Arg were purchased from Santa Cruz Biotechnology (Santa Cruz, Calif.). Horseradish peroxidase conjugated goat anti-rabbit or horseradish goat anti-mouse secondary antibody was purchased from Jackson Immunoresearch Laboratory (West Grove, Pa.). Horseradish peroxidase-conjugated donkey anti-goat serum was purchased from Santa Cruz Biotechnology. Immune complexes were visualized using enhanced chemiluminescence detection (Pierce Chemical Co., Rockford, Ill.). Fold differences in level of chemiluminescence were determined by densitometric analyses.
Total RNA was isolated from cells using RNeasy Protect Mini kit (Qiagen, Valencia, Calif.) according to manufacturer's instruction. Reverse transcription was performed as described above except using 15 μg of total RNA as template. Polymerase chain reaction (PCR) with Arg primers 30 cycles in volumes of 50 μl according to the manufacturer's protocol (Taq PCR Master Mix Kit; Qiagen, Valencia, Calif.). Primers used in the analyses were: Arg, forward (5′-CAGTGATGCCTCCACCTCAA-3′; SEQ ID NO:2) and reverse (5′-TTTCCCTCTCCCCTCAGAAAT-3′; SEQ ID NO:3) and for β-actin (loading control), forward (5′-GGCGGCACCACCATGTACCCT-3′; SEQ ID NO:4) and reverse (5′-AGGGGCCGGACTCGTCATACT-3′; SEQ ID NO:5) (Invitrogen, Carlsbad, Calif.). The amplification reaction involved denaturation at 95° C. for 30 seconds, annealing at 52° C. for 30 seconds, and extension at 72° C. for 30 seconds (for Arg) using a PTC-225 thermal cycler (MJ Research, San Francisco, Calif.). The PCR products were resolved on 1% agarose gels and visualized by ethidium bromide staining.
To confirm the microarray data, semi-quantative RT-PCR and Western blot analyses were carried out to measure the change in mRNA and protein level of NOXA using estrogen nonresponsive MDA-MB-435 and estrogen responsive MCF-7 human breast cancer cells. Assays were preformed as describide above using NOXA specific antibodies (purchased from Santa Cruz Biotechnology (Santa Cruz, Calif.)) and NOXA sepcific PCR primers (forward (5′-CGTGTGTAGTTGGCATCTCC-3′) and reverse (5′-GCCCCAAGTAACCCTCCTAT-3′)). In MCF-7 cells, α-TEA induced NOXA mRNA starting at 3 h, peaking at 15 h (FIG. 9A, left top panel). In MDA-MB-435 cells, α-TEA induced NOXA mRNA starting at 3 h, peaking at 6 h (FIG. 9A, right top panel). In both cell lines, protein levels of NOXA were increased at 15 and 24 h after α-TEA treatments (FIG. 9C, top panel). […] In MCF-7 cells, peak NOXA mRNA levels at 15 h were 1.5-fold higher than the VEH control and NOXA protein levels at 24 h were 7.6-fold higher than the VEH control. Upregulation of NOXA protein levels is correlated with PARP cleavage which is an indicator of cells undergoing apoptosis (Wolf and Green, 1999) (FIG. 9C, second panel). GAPDH levels served to help verify lane loads (FIG. 9C, bottom panel). […] NOXA protein levels were also assessed in other cell lines including MDA-MB-231 and T47D human breast cancer cell lines, immortalized, but nontumorigenic MCF-10A breast epithelial cells as well as human normal mammary epithelial cell line (HMEC) (Table 3). The ability of α-TEA to induce NOXA and induce apoptosis plus the p53 status based on the literature is summarized (Table 3).

Cc1c(C)c2c(c(C)c1OCC(=O)O)CC[C@@](C)(CCC[C@H](C)CCC[C@H](C)CCCC(C)C)O2 [α-TEA]
phosphorylation levels of Akt1, Akt2, Akt3 isoforms (immunoprecipitation) (Akt; LNCaP and PC-3-GFP cells, 40 μM α-TEA, 24 h): markedly reduced | effect on level of Akt protein expression (Akt; LNCaP and PC-3-GFP cells, any time point): no major effect | inhibition of levels of endogenously phosphorylated Akt (Akt; LNCaP cells, 10 μM α-TEA and/or 10 μM LY294002): 40% | reduction of phosphorylated forms of Akt (Akt; LNCaP cells, 40 μM α-TEA, 24 h): 90% | inhibition of levels of endogenously phosphorylated Akt (Akt; PC-3-GFP cells, 20 μM α-TEA and/or 10 μM LY294002): 70% | reduction of phosphorylated forms of Akt (Akt; PC-3-GFP cells, 40 μM α-TEA, 24 h): 70% | phosphorylation status of pGSK3β (at Ser 9) (GSK3β): Decreases | Ability of α-TEA to induce NOXA expression (NOXA; HMEC): No | Ability of α-TEA to induce NOXA expression (NOXA; MCF-7): Yes | peak NOXA mRNA levels, fold higher than VEH control (NOXA; MCF-7 cells, 15 h): 1.5 fold | NOXA protein levels, fold higher than VEH control (NOXA; MCF-7 cells): 7.6 fold | Ability of α-TEA to induce NOXA expression (NOXA; MCF-10A): Yes | Ability of α-TEA to induce NOXA expression (NOXA; MDA-MB-231): Yes | Ability of α-TEA to induce NOXA expression (NOXA; MDA-MB-435): Yes | peak NOXA mRNA levels, fold higher than VEH control (NOXA; MDA-MB-435 cells, 6 h): 2.6 fold | NOXA protein levels, fold higher than VEH control (NOXA; MDA-MB-435 cells): 16.8 fold | Ability of α-TEA to induce NOXA expression (NOXA; T47D): No
